Literature values, collected in US12194143B2, “Mycophenolate oral suspension” (LIQMEDS WORLDWIDE LIMITED, priority 2018, dated 2025).
Structures can show the parent of a compound that is named as a salt. Where two headings read alike, the source gives them in different places.

solubility (in 95% ethanol): soluble
solubility (in methanol): soluble
solubility (in water): slightly soluble
SMILES: C[C@@H](NCCCc1cccc(C(F)(F)F)c1)c1cccc2ccccc12 [Cinacalcet hydrochloride, N-[1-(R)-(−)-(1-naphthyl)ethyl]-3-[3-(trifluoromethyl)phenyl]-1-aminopropane]
